For this assay, the target named is T1, IKZF3-GFP (Homo sapiens, UniProt Q96SW2+Q9UKT9).
T1 construct: expressed in transfected cells; host or cells: HEK293A (Invitrogen R70507), lentiviral transduction with pLenti6-IKZF3-GFP-Ires-RFP, blasticidin selection
Description: IKZF3-GFP protein abundance flow cytometry assay in HEK293A cells. The class given is cell-based. To be noted: HEK293A IKZF3-GFP-iresRFP cells, 24 h; for DC50: GFP signal by flow cytometry; for IKZF3 deg Amax: % protein remaining at maximum degradation. How it is done: BTK-GFP and IKZF3-GFP protein abundance flow cytometry assay in HEK293A cells:
Degradation of BTK or IKZF3 was measured in HEK293A cells (Invitrogen R70507) expressing either BTK-GFP and RFP or IKZF3-GFP and RFP from a stably integrated bicistronic BTK-GFP-iresRFP or IKZF3-GFP-iresRFP construct, respectively. Reduction of the GFP signal measured by flow cytometry served as readout for BTK or IKZF3 degradation after degrader treatment.
By analogy the bicistronic pLenti6-IKZF3-GFP-iresRFP was engineered by gateway cloning of IKZF3 from a pENTR221-IKZF3(STOP-Leu) construct into the previously described pLenti6-DEST-GFP-Ires-RFP vector using the LR Clonase kit (Invitrogen 11791-019) according to the manufacturer's manual. All vectors described have been sequenced for verification.
ii) Engineering of Stably Expressing 293A BTK-GFP-Ires-RFP and IKZF3-GFP-Ires-RFP Sensor Cells
293A BTK-GFP-Ires-RFP and IKZF3-GFP-ires-RFP sensor cells were generated by lentiviral vector transduction using the pLenti6-BTK-GFP-Ires-RFP or pLenti6-IKZF3-GFP-Ires-RFP sensor construct described before. Lentiviral particles were produced in HEK293FT cells (Invitrogen R70007) by co-transfection of 500 ng pLenti6-BTK-GFP-ires-RFP or pLenti6-IKZF3-GFP-Ires-RFP, 500 ng delta8.71 and 200 ng pVSVG diluted in 100 μl OptiMEM serum free medium (Invitrogen #11058-021) that was mixed after 5 min preincubation with 3 μl of Lipofectamine2000 (Invitrogen #11668-019) in 97 μl OptiMEM serum free medium. The mix was incubated for another 20 min at RT and then added on 1 ml of a freshly prepared suspension of HEK293FT cells in a well of a 6-well plate (concentration 1.2×10^6 cells/ml). 1 day after transfection, the medium was replaced with 1.5 ml of complete growth medium (DMEM high Glucose+10% FCS+1% L-Glutamine+1% NEAA+1% NaPyr.). 48 h post transfection supernatant containing viral transducing particles was collected and frozen at −80° C.
Two days before transduction with viral particles 1×10^5 HEK293A cells (Invitrogen R70507) were seeded in 2 ml growth medium in a well of a 6-well plate. Infection was performed with 90 μl of collected supernatant containing viral transducing particles in 1 ml medium including 8 μg/ml polybrene. 24 h post infection, stably transfected cells were selected with blasticidin at a concentration of 8 μg/ml.
Iii) Quantitative BTK-GFP and IKZF3-GFP Abundance Measurements
Stable HEK293A-BTK-GFP-iresRFP cells were maintained in complete growth medium (DMEM high Glucose+10% FCS+1% L-Glutamine+1% NEAA+1% NaPyr.) with passaging performed twice per week. On Day 0, HEK293A-BTK-GFP-iresRFP or HEK293A-IKZF3-GFP-iresRFP and HEK293A-iresRFP cells were seeded at 10,000 cells/well in a 96-well microtiter plate in 260 μl complete medium. On Day 1, cells were treated in duplicate with 10-point 1:3 dilution series of compound using the HP D300 Digital Dispenser (Tecan). DMSO concentrations were normalized across the plate to 0.1%. On Day 2, after 24 h of incubation at 37° C., treatment media was discarded, cells rinsed with 100 μl/well PBS and then detached using 40 μl trypsin/well for 5 min. Trypsin was neutralized with 100 μl/well PBS+20% FCS). Flow cytometry was performed on the samples using the BD FACS CANTO II (Becton Dickinson). Cell identification was then performed using forward (FSC) vs. side scatter (SSC) plots. […] Median GFP values for 5,000 single cells are used to determine BTK levels. Median GFP values from HEK293A-iresRFP are used as a background signal and thus defining 0% BTK signal. Median GFP values from DMSO treated HEK293A-BTK-GFP-iresRFP or HEK293A-IKZF3-GFP-iresRFP are used to define 100% BTK signal for subsequent DC50 curves (concentration at 50% BTK degradation).

The structures appear in SMILES notation.

T1 sequence (Q9UKT9 whole entry): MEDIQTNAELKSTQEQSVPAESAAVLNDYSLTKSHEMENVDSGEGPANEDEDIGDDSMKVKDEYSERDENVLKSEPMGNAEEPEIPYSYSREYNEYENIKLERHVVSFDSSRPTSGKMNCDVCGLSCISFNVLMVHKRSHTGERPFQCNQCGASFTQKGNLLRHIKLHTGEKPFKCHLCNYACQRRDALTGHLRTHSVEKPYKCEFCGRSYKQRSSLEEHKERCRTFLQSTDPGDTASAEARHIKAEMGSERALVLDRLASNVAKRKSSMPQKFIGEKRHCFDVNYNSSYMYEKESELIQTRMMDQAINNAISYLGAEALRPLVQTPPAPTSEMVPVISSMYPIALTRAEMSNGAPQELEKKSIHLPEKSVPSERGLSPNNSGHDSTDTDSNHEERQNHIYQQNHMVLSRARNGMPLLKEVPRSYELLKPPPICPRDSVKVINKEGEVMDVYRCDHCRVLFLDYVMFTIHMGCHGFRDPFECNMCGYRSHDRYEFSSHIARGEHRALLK
T1 sequence (Q96SW2 whole entry): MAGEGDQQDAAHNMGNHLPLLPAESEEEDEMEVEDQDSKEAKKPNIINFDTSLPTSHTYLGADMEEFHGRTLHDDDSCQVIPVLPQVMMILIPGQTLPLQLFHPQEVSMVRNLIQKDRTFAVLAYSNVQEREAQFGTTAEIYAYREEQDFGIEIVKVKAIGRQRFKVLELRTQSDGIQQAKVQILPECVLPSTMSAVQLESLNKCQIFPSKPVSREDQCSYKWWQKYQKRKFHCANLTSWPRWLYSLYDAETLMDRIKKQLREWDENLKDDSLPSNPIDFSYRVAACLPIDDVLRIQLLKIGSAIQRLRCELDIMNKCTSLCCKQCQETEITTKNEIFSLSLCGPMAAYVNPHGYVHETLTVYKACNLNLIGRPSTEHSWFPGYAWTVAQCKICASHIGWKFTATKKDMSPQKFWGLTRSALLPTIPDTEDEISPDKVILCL
T1 sequence (Q16531 whole entry partner): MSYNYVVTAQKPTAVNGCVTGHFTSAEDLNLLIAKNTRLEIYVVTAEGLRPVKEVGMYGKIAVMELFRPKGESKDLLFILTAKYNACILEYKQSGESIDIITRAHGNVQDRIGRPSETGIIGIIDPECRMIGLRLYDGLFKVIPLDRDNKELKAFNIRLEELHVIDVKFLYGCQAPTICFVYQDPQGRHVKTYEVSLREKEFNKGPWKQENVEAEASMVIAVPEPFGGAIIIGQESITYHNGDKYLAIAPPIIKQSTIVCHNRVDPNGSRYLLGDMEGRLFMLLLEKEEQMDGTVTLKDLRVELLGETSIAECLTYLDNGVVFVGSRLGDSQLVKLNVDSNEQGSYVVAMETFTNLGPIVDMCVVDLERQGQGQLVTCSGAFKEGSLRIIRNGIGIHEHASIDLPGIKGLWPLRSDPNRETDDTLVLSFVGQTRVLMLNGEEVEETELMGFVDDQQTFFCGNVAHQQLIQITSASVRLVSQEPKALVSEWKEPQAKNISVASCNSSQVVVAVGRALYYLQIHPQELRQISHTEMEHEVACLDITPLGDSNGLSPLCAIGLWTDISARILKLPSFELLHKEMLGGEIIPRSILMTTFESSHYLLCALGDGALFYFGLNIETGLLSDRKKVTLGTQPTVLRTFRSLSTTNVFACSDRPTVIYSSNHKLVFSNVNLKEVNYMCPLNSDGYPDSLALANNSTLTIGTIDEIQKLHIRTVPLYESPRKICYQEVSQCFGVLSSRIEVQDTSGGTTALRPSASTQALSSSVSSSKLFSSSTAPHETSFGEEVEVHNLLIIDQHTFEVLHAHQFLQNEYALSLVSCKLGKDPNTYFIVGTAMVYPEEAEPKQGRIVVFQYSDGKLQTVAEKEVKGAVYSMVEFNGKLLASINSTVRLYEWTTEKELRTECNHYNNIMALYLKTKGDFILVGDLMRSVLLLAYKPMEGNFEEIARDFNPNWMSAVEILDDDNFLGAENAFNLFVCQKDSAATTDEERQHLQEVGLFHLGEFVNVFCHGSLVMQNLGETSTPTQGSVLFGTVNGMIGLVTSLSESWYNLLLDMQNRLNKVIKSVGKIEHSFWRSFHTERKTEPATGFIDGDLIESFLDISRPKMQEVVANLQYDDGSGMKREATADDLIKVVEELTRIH

Regarding `COc1ccc(C(=O)NCCN2CCOC3(CCN(Cc4ccc(-c5cc6c(-c7cc(F)cc(NC(=O)c8ccc(C(C)(C)O)cc8F)c7C)ncnc6[nH]5)cc4)CC3)C2)cc1N1CCC(=O)NC1=O` [Compound 39, N-(3-(6-(4-((4-(2-(3-(2,4-dioxotetrahydropyrimidin-1(2H)-yl)-4-methoxybenzamido)ethyl)-1-oxa-4,9-diazaspiro[5.5]undecan-9-yl)methyl)phenyl)-7H-pyrrolo[2,3-d]pyrimidin-4-yl)-5-fluoro-2-methylphenyl)-2-fluoro-4-(2-hydroxypropan-2-yl)benzamide], the DC50 is more than 10 µM and the “IKZF3 deg Amax” value is 94.5%.
Consider `COc1ccc(C(=O)N2CCC(OC3CCN(Cc4ccc(-c5cc6c(-c7cc(F)cc(NC(=O)c8ccc(C(C)(C)O)cc8F)c7C)ncnc6[nH]5)cc4)CC3)CC2)cc1N1CCC(=O)NC1=O` [Compound 8, N-(3-(6-(4-((4-((1-(3-(2,4-dioxotetrahydropyrimidin-1(2H)-yl)-4-methoxybenzoyl)piperidin-4-yl)oxyl)piperidin-1-yl)methyl)phenyl)-7H-pyrrolo[2,3-d]pyrimidin-4-yl)-5-fluoro-2-methylphenyl)-2-fluoro-4-(2-hydroxypropan-2-yl)benzamide], for which the DC50 is more than 2.6 µM and the “IKZF3 deg Amax” value is listed as 103.3%.
For `COc1ccc(C(=O)N2CCC(CN3CCC(Oc4ccc(-c5cc6c(-c7cc(F)cc(NC(=O)c8ccc(C(C)(C)O)cc8F)c7C)ncnc6[nH]5)cc4)CC3)CC2)cc1N1CCC(=O)NC1=O` [Compound 19, N-(3-(6-(4-((1-((1-(3-(2,4-Dioxotetrahydropyrimidin-1(2H)-yl)-4-methoxybenzoyl)piperidin-4-yl)methyl)piperidin-4-yl)oxyl)phenyl)-7H-pyrrolo[2,3-d]pyrimidin-4-yl)-5-fluoro-2-methylphenyl)-2-fluoro-4-(2-hydroxypropan-2-yl)benzamide] the same measures were more than 10 µM and 100.5%.
Turning to `COc1ccc(C(=O)N2CCN(C(=O)N3CCN(Cc4ccc(-c5cc6c(-c7cc(F)cc(NC(=O)c8ccc(C(C)(C)O)cc8F)c7C)ncnc6[nH]5)cc4)CC3)CC2)cc1N1CCC(=O)NC1=O` [Compound 22, N-(3-(6-(4-((4-(4-(3-(2,4-Dioxotetrahydropyrimidin-1(2H)-yl)-4-methoxybenzoyl)piperazine-1-carbonyl)piperazin-1-yl)methyl)phenyl)-7H-pyrrolo[2,3-d]pyrimidin-4-yl)-5-fluoro-2-methylphenyl)-2-fluoro-4-(2-hydroxypropan-2-yl)benzamide], the DC50 is more than 10 µM and the “IKZF3 deg Amax” value is given as 99.7%.
For the molecule `Cc1c(NC(=O)c2ccc(C(C)(C)O)cc2F)cc(F)cc1-c1ncnc2[nH]c(-c3ccc(COC4CCN(CCC5CCN(C(=O)c6ccc(F)c(N7CCC(=O)NC7=O)c6)CC5)CC4)cc3)cc12` [Compound 6, N-(3-(6-(4-(((1-(2(1-(3-(2,4-dioxotetrahydropyrimidin-1(2H)-yl)-4-fluorobenzoyl)piperidin-4-yl)ethyl)piperidin-4-yl)oxyl)methyl)phenyl)-7H-pyrrolo[2,3-d]pyrimidin-4-yl)-5-fluoro-2-methylphenyl)-2-fluoro-4-(2-hydroxypropan-2-yl)benzamide], the DC50 is more than 10 µM and the “IKZF3 deg Amax” value is 100.8%.
For the molecule `Cc1ccc(C(=O)N2CCC3(CCN(Cc4ccc(-c5cc6c(-c7cc(F)cc(NC(=O)c8ccc(C(C)(C)O)cc8F)c7C)ncnc6[nH]5)cc4)CC3)CC2)cc1N1CCC(=O)NC1=O` [Compound 27, N-(3-(6-(4-((9-(3-(2,4-Dioxotetrahydropyrimidin-1(2H)-yl)-4-methylbenzoyl)-3,9-diazaspiro[5.5]undecan-3-yl)methyl)phenyl)-7H-pyrrolo[2,3-d]pyrimidin-4-yl)-5-fluoro-2-methylphenyl)-2-fluoro-4-(2-hydroxypropan-2-yl)benzamide], the DC50 is more than 1.1 µM and the “IKZF3 deg Amax” value worked out at 102.2%.
`Cc1ccc(C(=O)N2CCC3(CCN(CCc4ccc(-c5cc6c(-c7cc(F)cc(NC(=O)c8ccc(C(C)(C)O)cc8F)c7C)ncnc6[nH]5)cc4)CC3)CC2)cc1N1CCC(=O)NC1=O` [Compound 5, N-(3-(6-(4-(2-(9-(3-(2,4-Dioxotetrahydropyrimidin-1(2H)-yl)-4-methylbenzoyl)-3,9-diazaspiro[5.5]undecan-3-yl)ethyl)phenyl)-7H-pyrrolo[2,3-d]pyrimidin-4-yl)-5-fluoro-2-methylphenyl)-2-fluoro-4-(2-hydroxypropan-2-yl)benzamide]: the DC50 is more than 0.37 µM and the “IKZF3 deg Amax” value is given as 103.3%.

Values taken from patent US12441733B2, “Substituted 2,4-dioxotetrahydropyrimidines as intermediates in the synthesis of bruton's tyrosine kinase inhibitors” (Novartis AG, priority 2018, dated 2025).
